Experimental data published in US20230085307A1, “PYRIDAZINONE COMPOUND AND HERBICIDE” (NISSAN CHEMICAL CORPORATION, priority 2019, published 2023).

Experiments:
late watergrass = experiment: Test Example 2: herbicidal activity, application during weed generation under submerged conditions (Table 17, symbol A); format: in vivo, late watergrass (Echinochloa oryzicola); settings: AAH 320 g/ha; application during weed generation, submerged conditions
Outline: (§1)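 Herbicide emulsion, diluted with water to the chosen amount, is applied onto 4 cm floodwater over alluvial soil where the weeds were co-sown and raised at 25–30° C. Application timing: 1–2 leaves. Assessment: three weeks afterwards.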

wild oat [1] = experiment: Test Example 4: herbicidal effect by soil treatment (Table 19, symbol I); format: in vivo, wild oat (Avena fatua); settings: for herbicidal effect on I: wild oat: amount of applied herbicide 320 g/ha
Outline: (§2)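 Three weeks of greenhouse growth at 25° C. to 30° C. followed a uniform surface spray of water-diluted emulsion at a predetermined herbicide amount. Seeds had been sown beforehand under about 1.5 cm of sterilized diluvial soil. Grading followed criteria set out in an earlier test.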

barnyard grass = experiment: Test Example 5: herbicidal effect by foliage application, plastic box (Table 20, symbol H); format: in vivo, barnyard grass (Echinochloa crus-galli); settings: foliage application; for H: barnyard grass, herbicidal effect (criteria 0-5): AAH 320 g/ha, evaluated three weeks after application
Outline: (§3)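 Plants sown in sterilized diluvial soil and grown 14 days in a greenhouse at 25° C to 30° C, then sprayed on the foliage with the compound's emulsion diluted in water to a predetermined herbicide amount. Injury to weeds and crops scored three weeks after application on a visual rating scale.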

oval-leafed pondweed = experiment: Test Example 2: herbicidal activity, application during weed generation under submerged conditions (Table 17, symbol C); format: in vivo, oval-leafed pondweed (Monochoria vaginalis); settings: AAH 320 g/ha; application during weed generation, submerged conditions
Outline: as §1

Italian ryegrass = experiment: Test Example 4: herbicidal effect by soil treatment (Table 19, symbol K); format: in vivo, Italian ryegrass (Lolium multiflorum); settings: for herbicidal effect on K: Italian ryegrass: amount of applied herbicide 320 g/ha
Outline: as §2

persian speedwell [2] = experiment: Test Example 4: herbicidal effect by soil treatment (Table 19, symbol R); format: in vivo, Persian speedwell (Veronica persica); settings: for herbicidal effect on R: persian speedwell: amount of applied herbicide 320 g/ha
Outline: as §2

lambsquarters [3] = experiment: Test Example 5: herbicidal effect by foliage application, plastic box (Table 20, symbol O); format: in vivo, lambsquarters (Chenopodium album); settings: foliage application; for O: lambsquarters, herbicidal effect (criteria 0-5): AAH 320 g/ha, evaluated three weeks after application
Outline: as §3

windgrass [4] = experiment: Test Example 4: herbicidal effect by soil treatment (Table 19, symbol L); format: in vivo, windgrass (Apera spica-venti); settings: for herbicidal effect on L: windgrass: amount of applied herbicide 320 g/ha
Outline: as §2

wild oat [5] = experiment: Test Example 5: herbicidal effect by foliage application, plastic box (Table 20, symbol I); format: in vivo, wild oat (Avena fatua); settings: foliage application; for I: wild oat, herbicidal effect (criteria 0-5): AAH 320 g/ha, evaluated three weeks after application
Outline: as §3

persian speedwell [6] = experiment: Test Example 5: herbicidal effect by foliage application, plastic box (Table 20, symbol R); format: in vivo, Persian speedwell (Veronica persica); settings: foliage application; for R: persian speedwell, herbicidal effect (criteria 0-5): AAH 320 g/ha, evaluated three weeks after application
Outline: as §3

Japanese bulrush = experiment: Test Example 1: herbicidal activity, application before weed generation under submerged conditions (Table 16, symbol B); format: in vivo, Japanese bulrush (Schoenoplectus juncoides); settings: 320 g/ha applied herbicide
Outline: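 Alluvial soil was flooded to 4 cm depth, weed seeds were sown mixed and 2.5-leaf rice seedlings were transplanted. On sowing day, the compound's emulsion, diluted in water to a set dose, was applied to the water surface. Plants grew at 25–30 °C and were scored 0–5 after three weeks.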

southern crabgrass = experiment: Test Example 4: herbicidal effect by soil treatment (Table 19, symbol F); format: in vivo, southern crabgrass (Digitaria ciliaris); settings: for herbicidal effect on F: southern crabgrass: amount of applied herbicide 320 g/ha
Outline: as §2

Chinese sprangletop = experiment: Test Example 3: herbicidal effect by foliage application, Wagner pot (Table 18, symbol D); format: in vivo, chinese sprangletop (Leptochloa chinensis); settings: for herbicidal effect on D: Chinese sprangletop: amount of applied herbicide 320 g/ha
Outline: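 Plants were sown in alluvial soil held under 0.1–0.5 cm standing water and grown 14 days in a greenhouse at 25–30 °C. An emulsifiable formulation, water-diluted to the set dose, was then sprayed onto the foliage, and effects were scored three weeks later using previously defined criteria.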

velvetleaf = experiment: Test Example 5: herbicidal effect by foliage application, plastic box (Table 20, symbol M); format: in vivo, velvetleaf (Abutilon theophrasti); settings: foliage application; for M: velvetleaf, herbicidal effect (criteria 0-5): AAH 320 g/ha, evaluated three weeks after application
Outline: as §3

windgrass [7] = experiment: Test Example 5: herbicidal effect by foliage application, plastic box (Table 20, symbol L); format: in vivo, windgrass (Apera spica-venti); settings: foliage application; for L: windgrass, herbicidal effect (criteria 0-5): AAH 320 g/ha, evaluated three weeks after application
Outline: as §3

blackgrass = experiment: Test Example 4: herbicidal effect by soil treatment (Table 19, symbol J); format: in vivo, blackgrass (Alopecurus myosuroides); settings: for herbicidal effect on J: blackgrass: amount of applied herbicide 320 g/ha
Outline: as §2

lambsquarters [8] = experiment: Test Example 4: herbicidal effect by soil treatment (Table 19, symbol O); format: in vivo, lambsquarters (Chenopodium album); settings: for herbicidal effect on O: lambsquarters: amount of applied herbicide 320 g/ha
Outline: as §2

[9] = 320 g/ha, 3 weeks after application

SMILES | herbicidal effect rating, A: late watergrass (late watergrass) | herbicidal effect on I: wild oat (wild oat [1]) | H: barnyard grass, herbicidal effect (criteria 0-5) (barnyard grass) | herbicidal effect rating, C: oval-leafed pondweed (oval-leafed pondweed) | herbicidal effect on K: Italian ryegrass (Italian ryegrass) | herbicidal effect on R: persian speedwell (persian speedwell [2]) | O: lambsquarters, herbicidal effect (criteria 0-5) (lambsquarters [3]) | herbicidal effect on L: windgrass (windgrass [4]) | I: wild oat, herbicidal effect (criteria 0-5) (wild oat [5]) | R: persian speedwell, herbicidal effect (criteria 0-5) (persian speedwell [6]) | Herbicidal effect on B: Japanese bulrush (grade 0-5) (Japanese bulrush) | herbicidal effect on F: southern crabgrass (southern crabgrass) | herbicidal effect on D: Chinese sprangletop (Chinese sprangletop) | M: velvetleaf, herbicidal effect (criteria 0-5) (velvetleaf) | L: windgrass, herbicidal effect (criteria 0-5) (windgrass [7]) | herbicidal effect on J: blackgrass (blackgrass) | herbicidal effect on O: lambsquarters (lambsquarters [8]) | further results
C#CCSCc1ccc(-c2sc3ccc(F)cc3c2-c2c(O)c(C)nn(C)c2=O)cc1 [2-325] | 2 (Herbicidal rate of 20% or more and less than 40%) | 0 (Herbicidal rate of 5% or less (almost no effect)) | 5 (Herbicidal rate of 90% or more (almost completely withered)) | 0 (Herbicidal rate of 5% or less (almost no effect)) | 4 (Herbicidal rate of 70% or more and less than 90%) | 5 (Herbicidal rate of 90% or more (almost completely withered)) | 5 (Herbicidal rate of 90% or more (almost completely withered)) | 0 (Herbicidal rate of 5% or less (almost no effect)) | 4 (Herbicidal rate of 70% or more and less than 90%) | 5 (Herbicidal rate of 90% or more (almost completely withered)) | 2 (Herbicidal rate of 20% or more and less than 40%) | 0 (Herbicidal rate of 5% or less (almost no effect)) | 3 (Herbicidal rate of 40% or more and less than 70%) | 5 (Herbicidal rate of 90% or more (almost completely withered)) | 5 (Herbicidal rate of 90% or more (almost completely withered)) | 0 (Herbicidal rate of 5% or less (almost no effect)) | 4 (Herbicidal rate of 70% or more and less than 90%) | –
COc1cccc(S(=O)(=O)Oc2c(C)nn(C)c(=O)c2-c2c(-c3ccc(OC(F)F)cc3)sc3ccc(F)cc23)c1 [2-313] | 3 (Herbicidal rate of 40% or more and less than 70%) | 0 (Herbicidal rate of 5% or less (almost no effect)) | 5 (Herbicidal rate of 90% or more (almost completely withered)) | 3 (Herbicidal rate of 40% or more and less than 70%) | 5 (Herbicidal rate of 90% or more (almost completely withered)) | 5 (Herbicidal rate of 90% or more (almost completely withered)) | 5 (Herbicidal rate of 90% or more (almost completely withered)) | 0 (Herbicidal rate of 5% or less (almost no effect)) | 2 (Herbicidal rate of 20% or more and less than 40%) | 5 (Herbicidal rate of 90% or more (almost completely withered)) | 3 (Herbicidal rate of 40% or more and less than 70%) | 0 (Herbicidal rate of 5% or less (almost no effect)) | 2 (Herbicidal rate of 20% or more and less than 40%) | 5 (Herbicidal rate of 90% or more (almost completely withered)) | 2 (Herbicidal rate of 20% or more and less than 40%) | 0 (Herbicidal rate of 5% or less (almost no effect)) | 3 (Herbicidal rate of 40% or more and less than 70%) | –
Cc1nn(C)c(=O)c(-c2c(-c3ccc(OC(F)F)cc3)sc3ccc(F)cc23)c1OC(=O)COc1ccccc1 [2-284] | 3 (Herbicidal rate of 40% or more and less than 70%) | 3 (Herbicidal rate of 40% or more and less than 70%) | 5 (Herbicidal rate of 90% or more (almost completely withered)) | 3 (Herbicidal rate of 40% or more and less than 70%) | 5 (Herbicidal rate of 90% or more (almost completely withered)) | 5 (Herbicidal rate of 90% or more (almost completely withered)) | 5 (Herbicidal rate of 90% or more (almost completely withered)) | 4 (Herbicidal rate of 70% or more and less than 90%) | 4 (Herbicidal rate of 70% or more and less than 90%) | 5 (Herbicidal rate of 90% or more (almost completely withered)) | 3 (Herbicidal rate of 40% or more and less than 70%) | 4 (Herbicidal rate of 70% or more and less than 90%) | 3 (Herbicidal rate of 40% or more and less than 70%) | 5 (Herbicidal rate of 90% or more (almost completely withered)) | 4 (Herbicidal rate of 70% or more and less than 90%) | 5 (Herbicidal rate of 90% or more (almost completely withered)) | 5 (Herbicidal rate of 90% or more (almost completely withered)) | –
Cc1nn(C)c(=O)c(-c2c(-c3ccc(Cl)cc3F)sc3ccc(F)cc23)c1O [2-348] | 3 (Herbicidal rate of 40% or more and less than 70%) | 0 (Herbicidal rate of 5% or less (almost no effect)) | 5 (Herbicidal rate of 90% or more (almost completely withered)) | 0 (Herbicidal rate of 5% or less (almost no effect)) | 2 (Herbicidal rate of 20% or more and less than 40%) | 4 (Herbicidal rate of 70% or more and less than 90%) | 5 (Herbicidal rate of 90% or more (almost completely withered)) | 0 (Herbicidal rate of 5% or less (almost no effect)) | 5 (Herbicidal rate of 90% or more (almost completely withered)) | 5 (Herbicidal rate of 90% or more (almost completely withered)) | 3 (Herbicidal rate of 40% or more and less than 70%) | 1 (Herbicidal rate of 5% or more and less than 20%) | 5 (Herbicidal rate of 90% or more (almost completely withered)) | 5 (Herbicidal rate of 90% or more (almost completely withered)) | 5 (Herbicidal rate of 90% or more (almost completely withered)) | 0 (Herbicidal rate of 5% or less (almost no effect)) | 5 (Herbicidal rate of 90% or more (almost completely withered)) | –
CCCC(=O)Oc1c(C)nn(C)c(=O)c1-c1c(-c2ccc(COC)cc2)sc2ccc(F)cc12 [2-023] | 3 (Herbicidal rate of 40% or more and less than 70%) | – | – | 0 (Herbicidal rate of 5% or less (almost no effect)) | – | – | – | – | – | – | 0 (Herbicidal rate of 5% or less (almost no effect)) | – | – | – | – | – | – | herbicidal effect rating, I: wild oat (wild oat [1]; 320 g/ha): 0 (Herbicidal rate of 5% or less (almost no effect)); effect on barnyard grass (H) (barnyard grass; [9]): 5 (Herbicidal rate of 90% or more (almost completely withered)); herbicidal effect rating, K: Italian ryegrass (Italian ryegrass; 320 g/ha): 4 (Herbicidal rate of 70% or more and less than 90%); herbicidal effect rating, R: persian speedwell (persian speedwell [2]; 320 g/ha): 5 (Herbicidal rate of 90% or more (almost completely withered)); effect on lambsquarters (O) (lambsquarters [3]; [9]): 4 (Herbicidal rate of 70% or more and less than 90%); herbicidal effect rating, L: windgrass (windgrass [4]; 320 g/ha): 0 (Herbicidal rate of 5% or less (almost no effect)); effect on wild oat (I) (wild oat [5]; [9]): 0 (Herbicidal rate of 5% or less (almost no effect)); effect on persian speedwell (R) (persian speedwell [6]; [9]): 5 (Herbicidal rate of 90% or more (almost completely withered)); herbicidal effect rating, F: southern crabgrass (southern crabgrass; 320 g/ha): 4 (Herbicidal rate of 70% or more and less than 90%); herbicidal effect on D (Chinese sprangletop), rating 0-5 (Chinese sprangletop; 320 g/ha): 4 (Herbicidal rate of 70% or more and less than 90%); effect on velvetleaf (M) (velvetleaf; [9]): 5 (Herbicidal rate of 90% or more (almost completely withered)); effect on windgrass (L) (windgrass [7]; [9]): 4 (Herbicidal rate of 70% or more and less than 90%); herbicidal effect rating, J: blackgrass (blackgrass; 320 g/ha): 3 (Herbicidal rate of 40% or more and less than 70%); herbicidal effect rating, O: lambsquarters (lambsquarters [8]; 320 g/ha): 5 (Herbicidal rate of 90% or more (almost completely withered))
